According to patent US6787530B1, “Use of pregnane-diones as analgesic agents” (priority 1996, dated 2004):

How the values were obtained:
[1] = Plasma alphadolone and glucuronide metabolite levels after oral capsule; format: in vivo, human
Protocol: The patients who had alphadolone administered orally to them, had blood samples taken at time 0, the time of drug administration, and at ½ hour intervals for 6 hours This blood was sent off to a laboratory at the Royal Melbourne Institute of Technology for analysis of blood alphadolone levels. It can be seen from Example 5 that no measurable alphadolone was found in the blood of these patients who were reporting useful analgesia with decreased morphine requirements. […] These experiments mean that very little or no free alphadolone was present in these patient's blood, but large quantities of alphadolone was present as the glucuronide metabolite. This evidence supports further our claim that the analgesic effects of alphadolone and alphadolone acetate given by oral and intraperitoneal routes involves activity of metabolites in general and the glucuronide in particular.
All patients had 10 ml of blood taken from a vein immediately prior to the capsule administration and also 30 minutes, one hour, 1½ hours, 2 hours, 3 hours, 4 hours and 6 hours after capsule administration. The blood was placed in heparinised tubes, centrifuged and the plasma decanted for later analysis of blood alphadolone levels by the Key Centre for Applied and Nutritional Toxicology, Royal Melbourne Institute of Technology.
No alphadolone was detected in the plasma. The lower limit of detection was 50 ng/ml. […] In 5 of these patients the metabolite was detected in the first sample taken after the alphadolone capsule had been given.

[2] = Glaxo in-house experiments; cited from earlier work
[3] = system: Wistar rat; experiment: Electrical current threshold for pain (ECT) in the tail after intragastric dosing, pilot experiment; format: in vivo; conditions: 150 mg suspended in 1% Cremophor EL, 99% saline, intragastrically; one rat approx. 200 g
Protocol: We performed a pilot experiment on one drug naive nale Wistar rat that weighed approximately 200 g. We measured the nociceptive (pain) threshold in the tail using electrical current as the noxious stimulus. We measured the electrical current threshold for pain (ECT) in the tail every five minutes until the readings stabilised. We then gave 150 mg alphadolone acetate suspended in 1% Cremophor EL, 99% saline, intragastrically.

[4] = system: patients scheduled for knee reconstruction surgery; experiment: Phase 1 study of oral alphadolone after knee reconstruction surgery: pain scores, PCA morphine consumption, CPM; format: in vivo, human; conditions: for morphine consumption from the PCA machine vs total range of placebo patients: single patients at 100, 250 and 500 mg orally
Source text: A pilot clinical study entitled “Investigation of the analgesic properties of alphadolone acetate administered orally to man—a dose escalation and efficacy study” was submitted to Monash Medical Centre Human Research and Ethics Committee A. It was approved and registered with the Therapeutics Goods Administration it Canberra under the Clinical Trials Notification (CTN) scheme. This was a small pilot study of phase 1 type design but incorporating some randomisation and placebo control because of the nature of the measurements, i.e. subjective pain measurements. The study was performed prospectively, one in three patients randomised to receive placebo formulation (lactose) and double-blind i.e. neither the patient nor the observer (a research anaesthetic registrar) were aware of the nature of the treatment, placebo or alphadolone.
The study consisted of two phases. The first phase was a dose escalation study. At any time during this phase as well as the second phase, if the patient was randomised to receive placebo then a capsule containing lactose was administered orally at the time of medication. If the patient was randomised to receive alphadolone then the first patient so randomised received 25 mg alphadolone acetate orally. The patient was monitored for efficacy of the medication and side effects. If there were no unacceptable side effects such as respiratory depression or severe sedation or disorientation then the next patient randomised to receive the active treatment received a higher dose. The dose escalation planned was in the order, 25, 50, 100, 250, 500 and 1000 mg. The original plan was to continue dose escalation until unacceptable side effects occurred and then to reduce the dose to go onto the next, second, phase of the study, a double-blind comparison of the dose just below the high dose that produced unacceptable side effects compared with placebo. However, the view of the Ethics Committee was that this was more appropriate to a drug company sponsored trial and they ordered that the trial should switch from the dose escalation phase to the comparison phase when there was clear evidence of efficacy.
Thus in the second phase of the study, a double-blind comparison of 250 mg of alphadolone with placebo was carried out. Patient 8, 10, 13 and 14 received 250 mg of alphadolone and patient 9, 11 and 12 received placebo.
14 patients scheduled for knee reconstruction surgery were recruited to this study. On the day prior to surgery for morning surgical patients or on the morning prior to afternoon surgery in those patients scheduled for afternoon lists, written informed consent was obtained from the patients after inclusion and exclusion criteria were met. The patient had to be ASA class 1 or 2, between 18 and 70 years, not using regular analgesics apart from paracetamol and non-steroid anti-inflammatory drugs. These were withheld on the day of surgery. The patient also had to have no renal, hepatic or respiratory disease other than mild asthma and could not be pregnant. No epidural/spinal/knee local anaesthetic or opioid injections were allowed. All patients had to receive post-operative morphine from a patient controlled analgesia device. After obtaining informed consent the patients were then given an opportunity to familiarise themselves with the PCA machine and also practice completing the visual analogue and verbal rating scales used for post-operative assessments.
No premedication was given. The patients were taken to the operating theatre and subjected to a standardised anaesthetic regime that consisted of a propofol induction followed by a propofol infusion and the muscle relaxant of the anaesthetist's preference The trachea was intubated and lungs ventilated with a mixture of nitrous oxide and oxygen. Morphine 1-2 mg intravenously was given as indicated by normal signs of depth of anaesthesia. The amount of morphine used in the operating theatre was recorded in the case record form. […]

[5] = system: spinal cord GABAA receptors
Protocol: A study was performed on five rats. Alphadolone ([…]) was suspended in normal saline. The five rats were randomised to receive on two different occasions on two different days either […]. This was a cross-over study such that on the following occasion if a rat had received vehicle on the first occasion then it received alphadolone on the second occasion and vice versa. This dosing was randomised and the observer making measurements of pain thresholds was blinded to the nature of the drug given to these rats. In each experiment, the electrical current threshold in the neck and the tail were measured every five minutes until three stable readings were obtained. Then either vehicle or alphadolone 750 mg per kg suspended in saline was instilled into the stomach via an oesophageal needle. Five minutes later and every five minutes thereafter, electrical current thresholds for nociception were measured in the skin of the tail and neck At 60 minutes 10 pmol of bicuculline in 5 μl 6% dextrose was injected intrathecally down a Portex catheter that had been implanted previously in the lumbar sub arachnoid space to lie adjacent to the most caudal segments of spinal cord responsible for tail innervation.

[6] = plasma treated with glucuronidase, 250 mg, 5 patients, 500 mg, one patient
[7] = up to six hours after capsule, 100, 250 and 500 mg orally, n = 7

CC(=O)OCC(=O)[C@H]1CC[C@H]2[C@@H]3CC[C@H]4C[C@H](O)CC[C@]4(C)[C@H]3C(=O)C[C@]12C [alphadolone, 21-acetoxy-3alpha-hydroxy-5alpha-pregnane-11,20-dione]
alphadolone in plasma (lower limit of detection) ([1]; oral capsule, samples up to 6 hours, without glucuronidase treatment): < 50 ng/mL | alphadolone metabolite (glucuronide) in plasma [1, 6]: microgram/ml concentrations | alphadolone metabolite in plasma at the 6 hour sampling time point [1, 6]: still present, although decaying | intravenous anaesthetic potency relative to alphaxolone [2]: one-third the potency | electrical current threshold for pain (ECT) in the tail [3]: significant rise in tail pain thresholds | morphine requirement and pain relief after major knee surgery ([4]; 250 mg and 500 mg given orally): reduced the morphine requirement for pain relief after major knee surgery and at the same time improved the pain relief | morphine sparing over six hours ([4]; (3.62÷12.42)×100% vs placebo): 29.1% | mean morphine usage during the six-hour period after capsule ingestion ([4]; PCA morphine, alphadolone treated patients (placebo 12.42 mg)): 8.8 mg | Standardised VAS scores; Mann-Whitney U-Test, Mean rank ([4]; VAS after capsule as ratio of pre-capsule readings, six hours, 100, 250 and 500 mg orally): 82.85 | morphine consumption from the PCA machine vs total range of placebo patients ([4]; between one and six hours after capsule): fell outside the total range of morphine used by placebo treated patients | verbal rating pain scores compared with placebo (chi squared test) ([4]; n = 7 vs placebo n = 5, p=0.006): significantly lower pain scores | standardised visual analogue scores compared with placebo (Mann-Whitney U-test) ([4]; n = 7 vs placebo n = 5, p=0.0117): significantly lower standadised visual analogue scores | morphine usage compared with placebo (chi-square) ([4]; p=0.0153, p=0.00651 with 3 and 4 mg cells combined): use less than placebo treated patients | Morphine doses in half-hour periods: 0 mg, frequency ([4]; six hours after capsule, n = 7): 39 | Morphine doses in half-hour periods: 1 mg, frequency ([4]; six hours after capsule, n = 7): 29 | Morphine doses in half-hour periods: 2 mg, frequency ([4]; six hours after capsule, n = 7): 15 | Morphine doses in half-hour periods: 3 mg, frequency ([4]; six hours after capsule, n = 7): 1 | Morphine doses in half-hour periods: 4 mg, frequency ([4]; six hours after capsule, n = 7): 0 | morphine usage with increasing alphadolone dose ([4]; six hours after capsule, single patients at 25, 50 and 100 mg orally): progressive reduction in morphine usage | morphine consumption from the PCA machine vs total range of placebo patients ([4]; six hours after capsule): fell outside the total range of the morphine consumption of placebo treated patients | Verbal rating scales for pain: Mild, frequency [4, 7]: 53 | Verbal rating scales for pain: Moderate, frequency [4, 7]: 20 | Verbal rating scales for pain: No pain, frequency [4, 7]: 6 | Verbal rating scales for pain: Severe, frequency [4, 7]: 4 | electrical current threshold in the skin of the tail and the neck ([5]; 750 mg per kg intragastric, suspended in saline, five rats, cross-over vs vehicle): sharp rise in the electrical current threshold | sedation (observation of the animals) ([5]; 750 mg per kg intragastric, five rats): no animals seemed to be sedated in any form whatsoever | antinociception (pain relief) ([5]; given intragastrically to rats): powerful antinociception | sedation ([5]; range of doses intragastrically to rats): no sedation, even at very large doses
